In US8431541B2, “Alpha-amylase inhibitors: the montbretins and uses thereof” (The University of British Columbia, priority 2007, dated 2013):

Columns and labels:
[1] = molecular target: T1, human pancreatic α-amylase (HPA) (Homo sapiens, UniProt P04746); assay: Kinetic analysis of HPA inhibition; type: biochemical
T1 sequence (P04746 16-511): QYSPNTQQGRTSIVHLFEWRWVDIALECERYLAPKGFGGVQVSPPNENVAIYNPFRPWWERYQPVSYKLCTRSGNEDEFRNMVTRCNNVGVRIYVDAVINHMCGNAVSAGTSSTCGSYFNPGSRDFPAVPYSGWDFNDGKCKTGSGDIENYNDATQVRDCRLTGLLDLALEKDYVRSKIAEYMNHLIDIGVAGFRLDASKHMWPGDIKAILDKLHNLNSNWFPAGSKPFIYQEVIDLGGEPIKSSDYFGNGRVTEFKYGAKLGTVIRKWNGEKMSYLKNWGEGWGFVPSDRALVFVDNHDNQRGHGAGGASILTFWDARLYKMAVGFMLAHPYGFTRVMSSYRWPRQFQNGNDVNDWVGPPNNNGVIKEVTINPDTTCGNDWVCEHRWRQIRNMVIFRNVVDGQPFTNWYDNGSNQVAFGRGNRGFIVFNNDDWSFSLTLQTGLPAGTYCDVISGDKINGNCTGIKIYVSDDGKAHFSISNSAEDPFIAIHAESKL

[2] = Stability in simulated gastric fluid (SGF) by UPLC; type: in vitro ADME; settings: positive control, 0.5 mg/ml, 37° C., 1 hour
Method: (§1) The stability of montbretin A in both simulated intestinal fluid (SIF) and simulated gastric fluid (SGF) were analyzed via ultra performance liquid chromatography (UPLC). The instrument consisted of a Waters® Acquity™ UPLC system equipped with a PDA and a TQ detector in tandem. The 2 μL sample injection volume was passed through a Waters® Acquity™ BEH C18 column (1.7 μm, 2.1×100 mm), with mobile phases A and B consisting of water with 0.1% formic acid and acetonitrile with 0.1% formic acid, respectively. The mobile phases were delivered at a programmed linear gradient at a column temperature of 35° C. Linearity was evaluated using a set of montbretin A calibration standards with concentrations ranging from 10 to 100 μg/mL in water. […]
(§2) To examine the gastrointestinal fluid activity, 0.5 mg/ml solutions of oleamide (positive control) in SGF or SIF were prepared by diluting a 100 μL aliquot of oleamide (50 mg/mL in 2-propanol) to 10 mL with either SGF or SIF and incubated in a 37° C. water bath for 1 or 3 hours, respectively. At time points of 1 or 3 hours, the sample was removed from the water bath and a 100 μL aliquot of the resulting solution was diluted to 1 mL with de-ionized water in a glass UPLC glass sample vial and analyzed by UPLC for oleamide content. […]

[3] = Stability in simulated intestinal fluid (SIF) by UPLC; type: in vitro ADME; settings: positive control, 0.5 mg/ml, 37° C., 3 hours
Method: as §1, §2

[4] = Aqueous solubility (observation)
[5] = molecular target: T2, porcine pancreatic α-amylase (Sus scrofa, UniProt P00690); settings: Taderal et al. 2006; read-out: IC50, inhibition of porcine pancreatic α-amylase; cited from earlier work
T2 sequence (P00690 16-511): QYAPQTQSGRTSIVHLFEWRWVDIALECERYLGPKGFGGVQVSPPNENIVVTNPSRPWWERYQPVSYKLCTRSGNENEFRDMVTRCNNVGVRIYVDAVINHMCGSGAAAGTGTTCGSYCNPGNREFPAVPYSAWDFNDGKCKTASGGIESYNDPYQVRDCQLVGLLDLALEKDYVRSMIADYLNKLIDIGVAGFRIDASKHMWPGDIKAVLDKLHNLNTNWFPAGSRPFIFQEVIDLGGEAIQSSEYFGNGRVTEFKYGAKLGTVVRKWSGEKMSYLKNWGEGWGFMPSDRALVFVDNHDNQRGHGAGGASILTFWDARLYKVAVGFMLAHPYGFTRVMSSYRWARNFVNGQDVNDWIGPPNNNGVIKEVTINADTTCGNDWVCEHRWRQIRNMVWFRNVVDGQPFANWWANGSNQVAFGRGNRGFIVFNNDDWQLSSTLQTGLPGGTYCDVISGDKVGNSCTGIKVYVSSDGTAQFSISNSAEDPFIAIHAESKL

[6] = molecular target: T3, human salivary α-amylase (Homo sapiens, UniProt P0DUB6); settings: Lo Piparo et al., J. Med. Chem. 2008; read-out: IC50, inhibition of human salivary α-amylase; cited from earlier work
T3 sequence (P0DUB6 16-511): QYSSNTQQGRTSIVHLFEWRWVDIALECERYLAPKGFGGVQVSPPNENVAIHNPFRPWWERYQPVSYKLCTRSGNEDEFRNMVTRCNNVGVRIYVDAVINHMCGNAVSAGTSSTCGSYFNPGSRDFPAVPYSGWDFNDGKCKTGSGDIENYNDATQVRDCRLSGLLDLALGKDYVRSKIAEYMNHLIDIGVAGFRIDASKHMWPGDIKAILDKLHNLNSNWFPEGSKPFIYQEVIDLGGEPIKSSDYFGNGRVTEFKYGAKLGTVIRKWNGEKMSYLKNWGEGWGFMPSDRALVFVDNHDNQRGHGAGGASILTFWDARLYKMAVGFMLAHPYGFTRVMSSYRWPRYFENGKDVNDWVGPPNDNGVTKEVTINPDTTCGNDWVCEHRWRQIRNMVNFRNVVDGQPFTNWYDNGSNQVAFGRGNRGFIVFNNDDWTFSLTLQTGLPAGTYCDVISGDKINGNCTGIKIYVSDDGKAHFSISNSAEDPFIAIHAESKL

[7] = tested on: control and STZ-diabetic rats; assay: Acute starch tolerance test; type: in vivo, rat; settings: STZ-diabetic rats, starch tolerance test; extracts 5 mg/kg
Method: Twenty-four animals were obtained at 200-250 g of body weight and randomly divided into control and diabetic groups. Diabetes was induced by a single intravenous tail vein injection of streptozotocin 60 mg/kg in 0.9% normal saline. Control rats received normal saline injections only. Animals were subsequently divided into acarbose untreated and treated. […] Starch was obtained from Fisher Scientific and a 17.5% suspension was made in distilled water. The dose of starch given was […].
The animals were fasted overnight. A basal blood sample was collected (50 μl volume) and then at 30, 60, 90 and 120 minutes post drug administration. Starch and starch+acarbose was administered by oral gavage. Blood was centrifuged at 10,000 g×25 minutes and plasma collected for determination of glucose levels using a Beckman Glucose Analyzer II™. There was no difference in body weight among the groups. There was a significant increase in plasma glucose 30 and 60 minutes following starch administration in the diabetic untreated group only.
The twenty-four animals from Example 6 were used following a wash out period of one week. Animals were divided into montbretin A untreated and treated. The four treatment groups were: control, n=6, control+montbretin A, n=6, diabetic, n=6 and diabetic+montbretin A, n=6. The procedures used in Example 6 were employed. Montbretin A was dissolved in distilled water at a concentration of 10 mg/ml and given at a volume of 1 ml/kg. The dose of montbretin A given was 10 mg/kg. There was no difference in body weight among the groups. There was a significant increase in plasma glucose levels in the diabetic untreated group at 30 and 60 minutes following starch administration.
A study was done to determine the effect of various amounts of montbretin A and montbretin extracts on plasma glucose levels in response to a starch challenge in STZ-diabetic rats. Diabetic animals used in the previous Examples were used following a wash out period of one week. The six experimental groups were: diabetic (D, n=3) diabetic+montbretin A (5 mg/kg), (DT5, n=3), diabetic+montbretin A (1 mg/kg), (DT1, n=3), diabetic+montbretin A (0.5 mg/kg), (DT0.5, n=3), diabetic+Crocosmia corm methanol extract (5 mg/kg), (DM, n=3) and diabetic+Crocosmia corm ethanol extract (5 mg/kg), (DE, n=2).
Montbretin A was dissolved in distilled water at a concentration of 5, 1 or 0.5 mg/ml and given at a volume of 1 ml/kg. The methanol extract contained montbretin A at a concentration of 3.2 mg/ml and ethanol extract at a concentration of 1.6 mg/ml. These extracts were dried and resuspended in distilled water. There was no difference in body weight among the groups. […] Diarrhea occurred in 2 out 3 animals given the methanol extract and in 1 out of 2 animals given the ethanol extract. […]

[8] = range finder method, Dixon plot, fixed substrate concentration

**Q.** With `CC1O[C@@H](O[C@@H]2CO[C@@H](Oc3c(O)cc(-c4oc5cc(O)cc(O)c5c(=O)c4O[C@@H]4OC(C)[C@H](O)[C@H](O)C4O[C@@H]4OC(COC(=O)/C=C/c5ccc(O)cc5)[C@@H](O)[C@@H](O)C4O[C@@H]4OC(CO)[C@@H](O)[C@@H](O)C4O)cc3O)C(O)[C@@H]2O)C(O)[C@@H](O)[C@H]1O` (some centres unmarked) [Montbretin B, montbretin B] as the compound, how does the Ki [1, 8] read?
**A.** 3.6 ± 0.1 µM

**Q.** Which “change of concentration after incubation in SGF” value [2] does the source give for `CCCCCCCC/C=C\CCCCCCCC(N)=O` [Oleamide, oleamide, reference compound] here?
**A.** significant decrease in concentration

**Q.** What about the “change of concentration after incubation in SIF” value [3] of the same compound?
**A.** significant decrease in concentration

**Q.** Which “mode of inhibition of HPA” value ([1]; double reciprocal plot) does the source give for `CCOC(=O)/C=C/c1ccc(O)c(O)c1` [ethyl caffeiate, reference compound] here?
**A.** non-competitive

**Q.** And the Ki ([1]; varied substrate and inhibitor concentrations, GraFit)?
**A.** 1300 ± 100 µM

**Q.** And the aqueous solubility [4]?
**A.** limited aqueous solubility

**Q.** With `O=c1c(O)c(-c2cc(O)c(O)c(O)c2)oc2cc(O)cc(O)c12` [myricetin] as the compound, how does the IC50 [5] read?
**A.** 380 µM

**Q.** And the IC50 [6]?
**A.** > 9 µM

**Q.** What about the aqueous solubility [4] of the same compound?
**A.** limited aqueous solubility

**Q.** Which occurrence of diarrhea [7] does the source give for montbretin A here?
**A.** No diarrhea

**Q.** For montbretin C, which Ki [1, 8] is on record?
**A.** 6.1 ± 0.1 µM
